Measured values taken from US9518026B2, “5-aminopyrazole-4-carboxamide inhibitors of CDPK1 from T. gondii and C. parvum” (UNIVERSITY OF WASHINGTON THROUGH ITS CENTER FOR …, priority 2013, dated 2016).
Like-named read-outs stand apart in the source and are kept apart here.

What was measured:
CpCDPK1 = CpCDPK1 (Cryptosporidium parvum (strain Iowa II), UniProt A3FQ16); experiment: biochemical; conditions: Table 1; KinaseGlo, Syntide 2 peptide substrate; read-out: CpCDPK1 IC50
TgCDPK1 = TgCDPK1 (Toxoplasma gondii, UniProt Q9BJF5); experiment: biochemical; conditions: read-out: TgCDPK1 IC50
TgCDPK1, sequence (Q9BJF5 1-507): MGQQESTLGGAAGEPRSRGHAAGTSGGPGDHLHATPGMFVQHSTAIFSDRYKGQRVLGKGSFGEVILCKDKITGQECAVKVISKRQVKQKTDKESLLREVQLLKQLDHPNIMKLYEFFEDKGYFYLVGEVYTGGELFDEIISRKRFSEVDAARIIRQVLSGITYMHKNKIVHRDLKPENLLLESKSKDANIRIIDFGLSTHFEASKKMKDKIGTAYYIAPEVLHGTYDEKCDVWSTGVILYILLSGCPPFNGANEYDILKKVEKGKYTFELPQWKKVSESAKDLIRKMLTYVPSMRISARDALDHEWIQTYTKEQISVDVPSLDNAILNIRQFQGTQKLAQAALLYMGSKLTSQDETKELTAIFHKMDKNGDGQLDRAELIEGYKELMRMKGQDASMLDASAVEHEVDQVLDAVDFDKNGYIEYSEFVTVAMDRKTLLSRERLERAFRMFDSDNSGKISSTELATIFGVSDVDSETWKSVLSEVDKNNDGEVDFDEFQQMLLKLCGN

[1] = Table 1, KinaseGlo, Syntide 2 peptide substrate

CpCDPK1, sequence (A3FQ16 1-538): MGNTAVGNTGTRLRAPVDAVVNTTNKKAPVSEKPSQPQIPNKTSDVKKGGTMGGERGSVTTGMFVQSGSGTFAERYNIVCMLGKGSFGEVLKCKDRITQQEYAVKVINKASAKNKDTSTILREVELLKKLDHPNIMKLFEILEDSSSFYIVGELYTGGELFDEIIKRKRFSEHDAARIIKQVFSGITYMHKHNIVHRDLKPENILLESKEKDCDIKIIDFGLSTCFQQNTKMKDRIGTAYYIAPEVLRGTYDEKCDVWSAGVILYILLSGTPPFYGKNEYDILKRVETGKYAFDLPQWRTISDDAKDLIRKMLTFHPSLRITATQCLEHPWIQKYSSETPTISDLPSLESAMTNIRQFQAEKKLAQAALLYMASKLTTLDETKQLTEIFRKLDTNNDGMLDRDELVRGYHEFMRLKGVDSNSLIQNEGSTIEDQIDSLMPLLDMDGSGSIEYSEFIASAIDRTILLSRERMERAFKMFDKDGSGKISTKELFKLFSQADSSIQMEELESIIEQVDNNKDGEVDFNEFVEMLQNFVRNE

Compound | IC50 (CpCDPK1) [µM] | IC50 (TgCDPK1) [µM] | IC50 (TgCDPK1; [1]) [µM]
CCOc1ccc2cc(-c3nn(C(C)(C)C)c4ncnc(N)c34)ccc2c1 [Compound 4, 1-tert-butyl-3-(6-ethoxynaphthalen-2-yl)-1H-pyrazolo[3,4-d]pyrimidin-4-amine, reference compound] | 0.043 |  | 
NC(=O)c1c(-c2ccc3ccccc3c2)nn(CC2CCNCC2)c1N [Compound 6, 5-amino-3-(naphthalen-2-yl)-1-(piperidin-4-ylmethyl)-1H-pyrazole-4-carboxamide] | 0.064 | 0.035 | 
Nc1ncnc2c1c(-c1ccc3ccccc3c1)nn2CC1CCNCC1 [Compound 7, 3-(naphthalen-2-yl)-1-(piperidin-4-ylmethyl)-1H-pyrazolo[3,4-d]pyrimidin-4-amine, reference compound] | 0.001 |  | 
CCOc1ccc2cc(-c3nn(CC4CCN(C)CC4)c(N)c3C(N)=O)ccc2c1 [Compound 8, 5-amino-3-(6-ethoxynaphthalen-2-yl)-1-((1-methylpiperidin-4-yl)methyl)-1H-pyrazole-4-carboxamide] | 0.009 | 0.011 | 
COc1ccc2cc(-c3nn(CC4CCN(C)CC4)c(N)c3C(N)=O)ccc2c1 [Compound 10, 5-amino-3-(6-methoxynaphthalen-2-yl)-1-((1-methylpiperidin-4-yl)methyl)-1H-pyrazole-4-carboxamide] | 0.014 |  | 0.035
COc1ccc2cc(-c3n[nH]c(N)c3C(N)=O)ccc2c1 [Compound 11, 5-amino-3-(6-methoxynaphthalen-2-yl)-1H-pyrazole-4-carboxamide] | 0.048 | 0.081 | 
CCn1nc(-c2ccc3ccccc3c2)c(C(N)=O)c1N [Compound 12, 5-amino-1-ethyl-3-(naphthalen-2-yl)-1H-pyrazole-4-carboxamide] | 0.011 | 0.008 | 
CC(C)n1nc(-c2ccc3ccccc3c2)c(C(N)=O)c1N [Compound 13, 5-amino-1-isopropyl-3-(naphthalen-2-yl)-1H-pyrazole-4-carboxamide] | 0.007 |  | 
CC(C)Cn1nc(-c2ccc3ccccc3c2)c(C(N)=O)c1N [Compound 14, 5-amino-1-isobutyl-3-(naphthalen-2-yl)-1H-pyrazole-4-carboxamide] | 0.016 |  | 
NC(=O)c1c(-c2ccc3ccccc3c2)nn(CC2CC2)c1N [Compound 15, 5-amino-1-(cyclopropylmethyl)-3-(naphthalen-2-yl)-1H-pyrazole-4-carboxamide] | 0.01 | 0.007 | 
NC(=O)c1c(-c2ccc3ccccc3c2)nn(CC2CCCCC2)c1N [Compound 16, 5-amino-1-(cyclohexylmethyl)-3-(naphthalen-2-yl)-1H-pyrazole-4-carboxamide] | 0.15 | 0.059 | 
NC(=O)c1c(-c2ccc3ccccc3c2)nn(C2CCCCC2)c1N [Compound 17, 5-amino-1-cyclohexyl-3-(naphthalen-2-yl)-1H-pyrazole-4-carboxamide] | 0.016 | 0.011 | 
CN1CCC(n2nc(-c3ccc4ccccc4c3)c(C(N)=O)c2N)CC1 [Compound 20, 5-amino-1-(1-methylpiperidin-4-yl)-3-(naphthalen-2-yl)-1H-pyrazole-4-carboxamide] | 0.013 | 0.026 | 
CN1CCC(Cn2nc(-c3ccc4ccccc4c3)c(C(N)=O)c2N)CC1 [Compound 21, 5-amino-1-((1-methylpiperidin-4-yl)methyl)-3-(naphthalen-2-yl)-1H-pyrazole-4-carboxamide] | 0.017 | 0.039 | 
NC(=O)c1c(-c2ccc3ccccc3c2)nn(CCO)c1N [Compound 22, 5-amino-1-(2-hydroxyethyl)-3-(naphthalen-2-yl)-1H-pyrazole-4-carboxamide] | 0.021 | 0.015 | 
NC(=O)c1c(-c2ccc3ccccc3c2)nn(CCN2CCOCC2)c1N [Compound 23, 5-amino-1-(2-morpholinoethyl)-3-(naphthalen-2-yl)-1H-pyrazole-4-carboxamide] | 0.018 | 0.005 | 
CC(C)(C)n1nc(-c2ccc3cc(O)ccc3c2)c(C(N)=O)c1N [Compound 24, 5-amino-1-(tert-butyl)-3-(6-hydroxynaphthalen-2-yl)-1H-pyrazole-4-carboxamide] | 0.017 |  | 
Cc1oc2ccccc2c1-c1nn(C(C)(C)C)c(N)c1C(N)=O [Compound 27, 5-amino-1-(tert-butyl)-3-(2-methylbenzofuran-3-yl)-1H-pyrazole-4-carboxamide] |  | 0.71 | 
Cn1nc(N)c2ccc(-c3nn(C(C)(C)C)cc3C(N)=O)cc21 [Compound 29, 3-(3-amino-1-methyl-1H-indazol-6-yl)-1-(tert-butyl)-1H-pyrazole-4-carboxamide] |  |  | 0.017
Cn1ncc2cc(-c3nn(C(C)(C)C)c(N)c3C(N)=O)ccc21 [Compound 30, 5-amino-1-(tert-butyl)-3-(1-methyl-1H-indazol-5-yl)-1H-pyrazole-4-carboxamide] | 0.15 | 0.032 | 

Compound | IC50 (CpCDPK1) [µM] | IC50 (TgCDPK1) [µM] | IC50 (TgCDPK1; [1]) [µM]
Cn1c(=O)[nH]c2cc(-c3nn(C(C)(C)C)c(N)c3C(N)=O)ccc21 [Compound 31, 5-amino-1-(tert-butyl)-3-(1-methyl-2-oxo-2,3-dihydro-1H-benzo[d]imidazol-5-yl)-1H-pyrazole-4-carboxamide] | > 3 |  | 0.64
Cc1nc2cc(-c3nn(C(C)(C)C)c(N)c3C(N)=O)ccc2n1C [Compound 32, 5-amino-1-(tert-butyl)-3-(1,2-dimethyl-1H-benzo[d]imidazol-5-yl)-1H-pyrazole-4-carboxamide] | > 3 |  | > 3
Cn1c(N)nc2cc(-c3nn(C(C)(C)C)c(N)c3C(N)=O)ccc21 [Compound 33, 5-amino-3-(2-amino-1-methyl-1H-benzo[d]imidazol-5-yl)-1-(tert-butyl)-1H-pyrazole-4-carboxamide] |  | 0.73 | 
CC(C)(C)n1nc(-c2ccc3oc(=O)ccc3c2)c(C(N)=O)c1N [Compound 34, 5-amino-1-(tert-butyl)-3-(2-oxo-2H-chromen-6-yl)-1H-pyrazole-4-carboxamide] | 0.2 | 0.032 | 
CC(C)(C)n1nc(-c2ccc3ccccc3n2)c(C(N)=O)c1N [Compound 35, 5-amino-1-(tert-butyl)-3-(quinolin-2-yl)-1H-pyrazole-4-carboxamide] | 0.29 | 0.049 | 
CCOc1ccc2nc(-c3nn(C(C)(C)C)c(N)c3C(N)=O)ccc2c1 [Compound 36, 5-amino-1-(tert-butyl)-3-(6-ethoxyquinolin-2-yl)-1H-pyrazole-4-carboxamide] | 0.39 | 0.35 | 
CC(C)(C)n1nc(-c2ccc3ncccc3c2)c(C(N)=O)c1N [Compound 37, 5-amino-1-(tert-butyl)-3-(quinolin-6-yl)-1H-pyrazole-4-carboxamide] | 0.07 | 0.01 | 
CC(C)(C)n1nc(-c2cnc3cc(C(F)(F)F)ccc3c2)c(C(N)=O)c1N [Compound 1555, 5-amino-1-tert-butyl-3-(7-(trifluoromethyl)quinolin-3-yl)-1H-pyrazole-4-carboxamide] | 0.222 |  | 
CC(C)(C)n1nc(-c2cnc3cc(OC(F)(F)F)ccc3c2)c(C(N)=O)c1N [Compound 1565, 5-amino-1-tert-butyl-3-(7-(trifluoromethoxy)quinolin-3-yl)-1H-pyrazole-4-carboxamide] | 0.038 |  | 0.031
COCCOc1ccc2cc(-c3nn(C(C)(C)C)c(N)c3C(N)=O)cnc2c1 [Compound 1570, 5-amino-1-(tert-butyl)-3-(7-(2-methoxyethoxy)quinolin-3-yl)-1H-pyrazole-4-carboxamide] | 0.255 |  | 0.258
CCOc1ccc2cc(-c3nn(CC4CCCCC4)c(N)c3C(N)=O)cnc2c1 [Compound 1574, 5-amino-1-(cyclohexylmethyl)-3-(7-ethoxyquinolin-3-yl)-1H-pyrazole-4-carboxamide] | 0.03 |  | 
CCOc1ccc2cc(-c3nn(CC(F)(F)F)c(N)c3C(N)=O)cnc2c1 [Compound 1575, 5-amino-3-(7-ethoxyquinolin-3-yl)-1-(2,2,2-trifluoroethyl)-1H-pyrazole-4-carboxamide] | 0.005 |  | 
CCOc1ccc2cc(-c3nn(CCO)c(N)c3C(N)=O)cnc2c1 [Compound 1577, 5-amino-3-(7-ethoxyquinolin-3-yl)-1-(2-hydroxyethyl)-1H-pyrazole-4-carboxamide] | 0.089 |  | 0.181
CC(C)(C)n1nc(-c2cnc3cc(OCC4CC4)ccc3c2)c(C(N)=O)c1N [Compound 1585, 5-amino-1-(tert-butyl)-3-(7-(cyclopropylmethoxy)quinolin-3-yl)-1H-pyrazole-4-carboxamide] | 0.009 |  | 
CC(C)(C)n1nc(-c2cnc3cc(OC4CC4)ccc3c2)c(C(N)=O)c1N [Compound 1586, 5-amino-1-(tert-butyl)-3-(7-cyclopropoxyquinolin-3-yl)-1H-pyrazole-4-carboxamide] | 0.005 |  | 
CC(C)(C)COc1ccc2cc(-c3nn(C(C)(C)C)c(N)c3C(N)=O)cnc2c1 [Compound 1587, 5-amino-1-(tert-butyl)-3-(7-(neopentyloxy)quinolin-3-yl)-1H-pyrazole-4-carboxamide] | 0.49 |  | 0.175
CCc1ccc2cc(-c3nn(C(C)(C)C)c(N)c3C(N)=O)cnc2c1 [Compound 1592, 5-amino-1-(tert-butyl)-3-(7-ethylquinolin-3-yl)-1H-pyrazole-4-carboxamide] | 0.085 |  | 
CCOc1ccc2cc(-c3n[nH]c(N)c3C(N)=O)cnc2c1 [Compound 1593, 5-amino-3-(7-ethoxyquinolin-3-yl)-1H-pyrazole-4-carboxamide] | 0.067 |  | 0.164
CCOc1ccc2cc(-c3nn(C(C)C(C)C)c(N)c3C(N)=O)cnc2c1 (stereo not shown) [Compound 1628, 5-amino-3-(7-ethoxyquinolin-3-yl)-1-(3-methylbutan-2-yl)-1H-pyrazole-4-carboxamide] | 0.005 |  | 
CCOc1ccc2cc(-c3nn(C4CCOC4)c(N)c3C(N)=O)ccc2n1 (stereo not shown) [Compound 1634, 5-amino-3-(2-ethoxyquinolin-6-yl)-1-(tetrahydrofuran-3-yl)-1H-pyrazole-4-carboxamide] | 0.003 |  | 
